Results published in US20230135729A1, “COMPOUND WITH ANTI-SPORE ACTIVITY AND PHARMACEUTICAL COMPOSITION THEREOF” (priority 2020, published 2023).
Values after ≈ are worked out from the molar mass of the structure shown.

Legend:
Type in all cases: cell-based
[1] = test system: spores of ATCC BBA1870 strain; assay: Inhibition of germination of C. difficile spores (MIC), strain ATCC BBA1870; conditions: Clostridioides difficile, ATCCBBA1870STRAIN, 1 h; strain 1870; sodium taurocholate as germinant, BHIS medium, 37° C., OD580 for 60 min; read-out: MIC (minimum concentration that completely inhibits spore germination)
In short: (§1)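 Spores heat-activated for 30 min at 65° C and washed, then preincubated with compound (10 mM DMSO stock) in BHIS at 37° C. Germination was triggered with sodium taurocholate, and OD580 was read each minute for 60 min. Inhibition = 100% − germination rate, from final vs initial OD relative to germinant-only controls.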

[2] = test system: spores of ATCC 43255 strain; assay: Inhibition of germination of C. difficile spores (MIC), strain ATCC 43255; conditions: Clostridioides difficile, ATCC43255, 1 h; strain 43255; sodium taurocholate as germinant, BHIS medium, 37° C., OD580 for 60 min; read-out: MIC (minimum concentration that completely inhibits spore germination)
In short: as §1

[3] = test system: spores of ATCC 630 strain; assay: Inhibition of germination of C. difficile spores (MIC), strain ATCC 630; conditions: Clostridioides difficile, ATCC630, 1 h; strain 630; sodium taurocholate as germinant, BHIS medium, 37° C., OD580 for 60 min; read-out: MIC (minimum concentration that completely inhibits spore germination)
In short: as §1

Row | SMILES | MIC [1] [µM] | MIC [2] [µM] | MIC [3] [µM]
1 | CC[C@@H](NC(=O)C[C@@H](C)[C@H]1CC[C@H]2[C@@H]3[C@H](O)C[C@@H]4CC(=O)CC[C@]4(C)[C@H]3CC[C@]12C)c1ccc(S(=O)(=O)O)s1 [Compound I-94] | 8 (≈ 4.64 µg/mL) | 16 (≈ 9.28 µg/mL) | 8 (≈ 4.64 µg/mL)
2 | CC(C)C(NC(=O)C[C@@H](C)[C@H]1CC[C@H]2[C@@H]3[C@H](O)C[C@@H]4CC(=O)CC[C@]4(C)[C@H]3CC[C@]12C)c1ccc(Cl)s1 (stereo partly drawn) [Compound I-95] | 0.25 (≈ 0.137 µg/mL) | 0.25 (≈ 0.137 µg/mL) | 0.25 (≈ 0.137 µg/mL)
3 | CC(C)[C@H](NC(=O)C[C@@H](C)[C@H]1CC[C@H]2[C@@H]3[C@H](O)C[C@@H]4CC(=O)CC[C@]4(C)[C@H]3CC[C@]12C)c1ccc(Cl)s1 [Compound I-96] | 4 (≈ 2.19 µg/mL) | 4 (≈ 2.19 µg/mL) | 4 (≈ 2.19 µg/mL)
4 | CC(C)[C@@H](NC(=O)C[C@@H](C)[C@H]1CC[C@H]2[C@@H]3[C@H](O)C[C@@H]4CC(=O)CC[C@]4(C)[C@H]3CC[C@]12C)c1ccc(Cl)s1 [Compound I-97] | 0.125 (≈ 0.0685 µg/mL) | 0.125 (≈ 0.0685 µg/mL) | 0.125 (≈ 0.0685 µg/mL)
5 | CC(C)C(NC(=O)C[C@@H](C)[C@H]1CC[C@H]2[C@@H]3[C@H](O)C[C@@H]4CC(=O)CC[C@]4(C)[C@H]3CC[C@]12C)c1ccc(Br)s1 (stereo partly drawn) [Compound I-98] | 0.5 (≈ 0.296 µg/mL) | 0.5 (≈ 0.296 µg/mL) | 0.5 (≈ 0.296 µg/mL)
6 | CC(C)[C@H](NC(=O)C[C@@H](C)[C@H]1CC[C@H]2[C@@H]3[C@H](O)C[C@@H]4CC(=O)CC[C@]4(C)[C@H]3CC[C@]12C)c1ccc(Br)s1 [Compound I-99] | > 256 | 256 (≈ 152 µg/mL) | 256 (≈ 152 µg/mL)
7 | CC(C)[C@@H](NC(=O)C[C@@H](C)[C@H]1CC[C@H]2[C@@H]3[C@H](O)C[C@@H]4CC(=O)CC[C@]4(C)[C@H]3CC[C@]12C)c1ccc(Br)s1 [Compound I-100] | 0.25 (≈ 0.148 µg/mL) | 0.25 (≈ 0.148 µg/mL) | 0.25 (≈ 0.148 µg/mL)
8 | CC(C)C(NC(=O)C[C@@H](C)[C@H]1CC[C@H]2[C@@H]3[C@H](O)C[C@@H]4CC(=O)CC[C@]4(C)[C@H]3CC[C@]12C)c1ccc(S(=O)(=O)O)s1 (stereo partly drawn) [Compound I-101] | 32 (≈ 19 µg/mL) | 32 (≈ 19 µg/mL) | 32 (≈ 19 µg/mL)
9 | CC(C)[C@H](NC(=O)C[C@@H](C)[C@H]1CC[C@H]2[C@@H]3[C@H](O)C[C@@H]4CC(=O)CC[C@]4(C)[C@H]3CC[C@]12C)c1ccc(S(=O)(=O)O)s1 [Compound I-102] | > 256 | > 256 | > 256
10 | CC(C)[C@@H](NC(=O)C[C@@H](C)[C@H]1CC[C@H]2[C@@H]3[C@H](O)C[C@@H]4CC(=O)CC[C@]4(C)[C@H]3CC[C@]12C)c1ccc(S(=O)(=O)O)s1 [Compound I-103] | 16 (≈ 9.5 µg/mL) | 16 (≈ 9.5 µg/mL) | 16 (≈ 9.5 µg/mL)
11 | CCC(NC(=O)C[C@@H](C)[C@H]1CC[C@H]2[C@@H]3[C@H](OS(=O)(=O)O)C[C@@H]4CC(=O)CC[C@]4(C)[C@H]3CC[C@]12C)c1ccc(Cl)s1 (stereo partly drawn) [Compound I-104] | 1 (≈ 0.614 µg/mL) | 1 (≈ 0.614 µg/mL) | 1 (≈ 0.614 µg/mL)
12 | CC[C@H](NC(=O)C[C@@H](C)[C@H]1CC[C@H]2[C@@H]3[C@H](OS(=O)(=O)O)C[C@@H]4CC(=O)CC[C@]4(C)[C@H]3CC[C@]12C)c1ccc(Cl)s1 [Compound I-105] | > 256 | > 256 | > 256
13 | CC[C@@H](NC(=O)C[C@@H](C)[C@H]1CC[C@H]2[C@@H]3[C@H](OS(=O)(=O)O)C[C@@H]4CC(=O)CC[C@]4(C)[C@H]3CC[C@]12C)c1ccc(Cl)s1 [Compound I-106] | 0.5 (≈ 0.307 µg/mL) | 0.25 (≈ 0.154 µg/mL) | 0.5 (≈ 0.307 µg/mL)
14 | CCC(NC(=O)C[C@@H](C)[C@H]1CC[C@H]2[C@@H]3[C@H](OS(=O)(=O)O)C[C@@H]4CC(=O)CC[C@]4(C)[C@H]3CC[C@]12C)c1ccc(Br)s1 (stereo partly drawn) [Compound I-107] | 1 (≈ 0.659 µg/mL) | 1 (≈ 0.659 µg/mL) | 1 (≈ 0.659 µg/mL)
15 | CC[C@H](NC(=O)C[C@@H](C)[C@H]1CC[C@H]2[C@@H]3[C@H](OS(=O)(=O)O)C[C@@H]4CC(=O)CC[C@]4(C)[C@H]3CC[C@]12C)c1ccc(Br)s1 [Compound I-108] | > 256 | > 256 | > 256
16 | CC[C@@H](NC(=O)C[C@@H](C)[C@H]1CC[C@H]2[C@@H]3[C@H](OS(=O)(=O)O)C[C@@H]4CC(=O)CC[C@]4(C)[C@H]3CC[C@]12C)c1ccc(Br)s1 [Compound I-109] | 0.5 (≈ 0.329 µg/mL) | 0.25 (≈ 0.165 µg/mL) | 0.5 (≈ 0.329 µg/mL)

Row | SMILES | MIC [1] [µM] | MIC [2] [µM] | MIC [3] [µM]
17 | CC(C)C(NC(=O)C[C@@H](C)[C@H]1CC[C@H]2[C@@H]3[C@H](OS(=O)(=O)O)C[C@@H]4CC(=O)CC[C@]4(C)[C@H]3CC[C@]12C)c1ccc(Cl)s1 (stereo partly drawn) [Compound I-110] | 1 (≈ 0.628 µg/mL) | 0.5 (≈ 0.314 µg/mL) | 1 (≈ 0.628 µg/mL)
18 | CC(C)[C@H](NC(=O)C[C@@H](C)[C@H]1CC[C@H]2[C@@H]3[C@H](OS(=O)(=O)O)C[C@@H]4CC(=O)CC[C@]4(C)[C@H]3CC[C@]12C)c1ccc(Cl)s1 [Compound I-111] | > 256 | > 256 | > 256
19 | CC(C)[C@@H](NC(=O)C[C@@H](C)[C@H]1CC[C@H]2[C@@H]3[C@H](OS(=O)(=O)O)C[C@@H]4CC(=O)CC[C@]4(C)[C@H]3CC[C@]12C)c1ccc(Cl)s1 [Compound I-112] | 0.5 (≈ 0.314 µg/mL) | 0.25 (≈ 0.157 µg/mL) | 0.5 (≈ 0.314 µg/mL)
20 | CC(C)C(NC(=O)C[C@@H](C)[C@H]1CC[C@H]2[C@@H]3[C@H](OS(=O)(=O)O)C[C@@H]4CC(=O)CC[C@]4(C)[C@H]3CC[C@]12C)c1ccc(Br)s1 (stereo partly drawn) [Compound I-113] | 1 (≈ 0.673 µg/mL) | 0.5 (≈ 0.336 µg/mL) | 1 (≈ 0.673 µg/mL)
21 | CC(C)[C@H](NC(=O)C[C@@H](C)[C@H]1CC[C@H]2[C@@H]3[C@H](OS(=O)(=O)O)C[C@@H]4CC(=O)CC[C@]4(C)[C@H]3CC[C@]12C)c1ccc(Br)s1 [Compound I-114] | > 256 | > 256 | > 256
22 | CC(C)[C@@H](NC(=O)C[C@@H](C)[C@H]1CC[C@H]2[C@@H]3[C@H](OS(=O)(=O)O)C[C@@H]4CC(=O)CC[C@]4(C)[C@H]3CC[C@]12C)c1ccc(Br)s1 [Compound I-115] | 0.5 (≈ 0.336 µg/mL) | 0.25 (≈ 0.168 µg/mL) | 0.5 (≈ 0.336 µg/mL)
23 | CCC(NC(=O)C[C@@H](C)[C@H]1CC[C@H]2[C@@H]3[C@H](O)[C@H](O)[C@@H]4C[C@H](O)CC[C@]4(C)[C@H]3CC[C@]12C)c1cccs1 (stereo partly drawn) [Compound I-116] | 16 (≈ 8.28 µg/mL) | 16 (≈ 8.28 µg/mL) | 16 (≈ 8.28 µg/mL)
24 | CC[C@@H](NC(=O)C[C@@H](C)[C@H]1CC[C@H]2[C@@H]3[C@H](O)[C@H](O)[C@@H]4C[C@H](O)CC[C@]4(C)[C@H]3CC[C@]12C)c1ccc(Cl)s1 [Compound I-117] | 8 (≈ 4.42 µg/mL) | 8 (≈ 4.42 µg/mL) | 4 (≈ 2.21 µg/mL)
25 | CCC(NC(=O)C[C@@H](C)[C@H]1CC[C@H]2[C@@H]3[C@H](O)[C@H](O)[C@@H]4C[C@H](O)CC[C@]4(C)[C@H]3CC[C@]12C)c1ccc(Br)s1 (stereo partly drawn) [Compound I-118] | 16 (≈ 9.55 µg/mL) | 8 (≈ 4.77 µg/mL) | 8 (≈ 4.77 µg/mL)
26 | CC(C)C(NC(=O)C[C@@H](C)[C@H]1CC[C@H]2[C@@H]3[C@H](O)[C@H](O)[C@@H]4C[C@H](O)CC[C@]4(C)[C@H]3CC[C@]12C)c1cccs1 (stereo partly drawn) [Compound I-119] | 32 (≈ 17 µg/mL) | 32 (≈ 17 µg/mL) | 32 (≈ 17 µg/mL)
27 | CC(C)[C@@H](NC(=O)C[C@@H](C)[C@H]1CC[C@H]2[C@@H]3[C@H](O)[C@H](O)[C@@H]4C[C@H](O)CC[C@]4(C)[C@H]3CC[C@]12C)c1ccc(Cl)s1 [Compound I-120] | 16 (≈ 9.06 µg/mL) | 16 (≈ 9.06 µg/mL) | 16 (≈ 9.06 µg/mL)
28 | CC(C)[C@H](NC(=O)C[C@@H](C)[C@H]1CC[C@H]2[C@@H]3[C@H](O)[C@H](O)[C@@H]4C[C@H](O)CC[C@]4(C)[C@H]3CC[C@]12C)c1ccc(Br)s1 [Compound I-121] | > 256 | > 256 | > 256
29 | CC[C@@H](NC(=O)C[C@@H](C)[C@H]1CC[C@H]2[C@@H]3[C@H](O)[C@H](O)[C@@H]4CC(=O)CC[C@]4(C)[C@H]3CC[C@]12C)c1cccs1 [Compound I-122] | 128 (≈ 66 µg/mL) | 128 (≈ 66 µg/mL) | 128 (≈ 66 µg/mL)
30 | CC[C@@H](NC(=O)C[C@@H](C)[C@H]1CC[C@H]2[C@@H]3[C@H](O)[C@H](O)[C@@H]4CC(=O)CC[C@]4(C)[C@H]3CC[C@]12C)c1ccc(Cl)s1 [Compound I-123] | 64 (≈ 35.2 µg/mL) | 64 (≈ 35.2 µg/mL) | 64 (≈ 35.2 µg/mL)
31 | CC[C@@H](NC(=O)C[C@@H](C)[C@H]1CC[C@H]2[C@@H]3[C@H](O)[C@H](O)[C@@H]4CC(=O)CC[C@]4(C)[C@H]3CC[C@]12C)c1ccc(Br)s1 [Compound I-124] | 64 (≈ 38.1 µg/mL) | 64 (≈ 38.1 µg/mL) | 64 (≈ 38.1 µg/mL)
32 | CCC(NC(=O)C[C@@H](C)[C@H]1CC[C@H]2[C@@H]3C[C@H](O)[C@@H]4C[C@H](O)CC[C@]4(C)[C@H]3CC[C@]12C)c1cccs1 (stereo partly drawn) [Compound I-125] | 2 (≈ 1 µg/mL) | 2 (≈ 1 µg/mL) | 2 (≈ 1 µg/mL)
